What all share (format): in vivo
Experiment [1] relates to powdery mildew in barley. The experiment in a line: Curative (C) activity against powdery mildew in barley. The settings on record: Hordeum vulgare, concentration 100 ppm. The procedure:
(§1) In further tests, the residual (R) and curative (C) activities of various compounds against powdery mildew in barley and wheat was determined at various concentrations of the test compounds.

The subject of experiment [2] is powdery mildew in barley. The experiment in a line: Residual (R) activity against powdery mildew in barley. The settings on record: Hordeum vulgare. The procedure: as §1
Experiment [3] relates to powdery mildew in wheat. Nature of the experiment: Curative (C) activity against powdery mildew in wheat. The following applies: Triticum aestivum, concentration 400 ppm. The procedure: as §1
The test system of experiment [4] is powdery mildew in wheat. Nature of the experiment: Residual (R) activity against powdery mildew in wheat. The settings on record: Triticum aestivum, concentration 400 ppm. Here is the method:
as §1

Molecules are shown by their SMILES.

Consider `CCCOc1cc2c(-c3c(Cl)cccc3Cl)[n+]([O-])ccc2cc1OCC` [Example 6, 1-(2,6-Dichlorophenyl)-6-ethoxy-7-propoxyisoquinoline N-oxide], for which the activity at 100 ppm in the experiment on powdery mildew in barley [1] and in the experiment with powdery mildew in barley [2] (concentration 100 ppm) was 100% each time. The activity at 400 ppm in the experiment on powdery mildew in wheat [3] came to 68.5%; in the experiment on powdery mildew in wheat [4] it was 98.8%.
Molecule `CCCOc1cc2c(cc1OCC)CC[N+]([O-])=C2c1ccccc1[N+](=O)[O-]` [Example 7, 1-(2-nitrophenyl)-3,4-dihydro-6-ethoxy-7-propoxyisoquinoline-N-oxide] came in with an activity at 100 ppm in the experiment with powdery mildew in barley [1] of 100%. The figures for the activity at 400 ppm in the experiment with powdery mildew in barley [2] (concentration 400 ppm), in the experiment with powdery mildew in wheat [3] and in the experiment with powdery mildew in wheat [4] were 75%, 23% and 94%, respectively.

These data come from patent EP0491441A1, “Fungicidal isoquinoline derivatives” (SHELL INTERNATIONALE RESEARCH MAATSCHAPPIJ B.V., priority 1990, dated 1992).
